Test results published in patent US8551960B2, “Uses of D-mannopyranose derivatives activating angiogenesis” (Centre National de la Recherche Scientifique, priority 2008, dated 2013).

These compounds were tested on chick embryo chorioallantoic membrane (CAM) (assay: chick embryo chorioallantoic membrane (CAM) angiogenesis study). Settings: nitrocellulose filter disk soaked with 20 μl of 6 mg/ml in PBS placed on CAM on 7th day; observed on 12th day; estimated visually; FIG. 1.
Format: in vivo, chick (Leghorn white breed)
Experimental: This study was conducted on chick embryos according to the method described by Ribatti D. et al., Nat. Protoc., 2006, 1(1), 85-91 with some minor modifications.
This study was conducted on chick embryo chorioallantoic membrane (CAM). The CAM is an extraembryonic membrane formed on the 4th day of incubation by fusion of the chorion and allantois. It enables gas exchanges to take place between the chick embryo and the extraembryonic environment until birth. This CAM is composed of a very thick capillary network which forms a continuous surface in direct contact with the shell. Rapid capillary proliferation of this membrane continues until the 11th day; the mitotic index then decreases rapidly and the vascular system reaches its final arrangement on the 18th day, just before birth (hatching on the 21st day).
Fertilized chicken eggs of the Leghorn white breed were placed in an incubator at the start of embryogenesis, where they were kept under constant humidity at a temperature of 38° C. On the second day of incubation, a window was made in the shell after removing 2 to 3 ml of albumin in order to detach the CAM from the shell. The window was then sealed with adhesive tape and the egg was put back in the incubator to continue its development until the day of the experiment. On the 7th day, pieces of inert synthetic polymers (nitrocellulose filter disks 0.4 cm in diameter) were soaked with 20 μl of each of the solutions of the test compounds (6 mg/ml in PBS) and were then positioned on the CAM. The effect of the test substances on angiogenesis was then observed on the 12th day and the quantitative evaluation of the pro- or antiangiogenic response was estimated visually.

Compound | effect on vascularization of the chick embryos (pro- or antiangiogenic response)
CO[C@H]1O[C@H](CCN)[C@@H](O)[C@H](O)[C@@H]1O [Compound I-1, Methyl 7-amino-6,7-dideoxy-α-D-manno-heptopyranoside] | activating effect on vascularization
COC1O[C@H](CC(=O)O)[C@@H](O)[C@H](O)[C@@H]1O (stereo partly drawn) [DM4, (methyl 6,7-dideoxy-D-manno-heptopyranoside)uronic acid] | inhibitory effect on vascularization
COC1O[C@H](CCP(=O)(O)O)[C@@H](O)[C@H](O)[C@@H]1O (stereo partly drawn) [Compound I-4, methyl 7-phosphonato-6,7-dideoxy-D-manno-heptopyranoside] | activating effect on vascularization
COC1O[C@H](CC(C(=O)O)C(=O)O)[C@@H](O)[C@H](O)[C@@H]1O (stereo partly drawn) [DM3, methyl 6-deoxy-6-malonate-D-mannopyranoside] | inhibitory effect on vascularization
methyl 6,7-dideoxy-7-sulfonato-D-manno-heptopyranoside [DM2] | inhibitory effect on vascularization
COC1O[C@H](COP(=O)([O-])[O-])[C@@H](O)[C@H](O)[C@@H]1O.[Na+].[Na+] (stereo partly drawn) [DM1, methyl(disodium)-6-phosphate-D-manno-pyranoside] | inhibitory effect on vascularization
CO[C@H]1O[C@H](CN=[N+]=[N-])[C@@H](O)[C@H](O)[C@@H]1O [Compound I-2, Methyl 6-Azido-6-Deoxy-α-D-Mannopyranoside] | activating effect on vascularization
